In patent US9687479B2, “Multisubstituted aromatic compounds as serine protease inhibitors” (VERSEON CORPORATION, priority 2013, dated 2017):

Key:
[1] = molecular target: Human KLKB1 (Homo sapiens (Human), UniProt P03952); assay: KLKB1 kallikrein activity inhibition assay (chromogenic substrate S-2302); assay type: biochemical
Protocol: The KLKB1 kallikrein activity reported herein (e.g., Tables B, C, and D) was obtained as follows. Human KLKB1 protein was obtained from Enzyme Research Labs. […] KLKB1 was assayed in buffer containing 0.05 M Tris (pH 7.4), 0.01 M NaCl and 0.2% w/v PEG-8000. The final concentration of enzyme used was 3 nM KLKB1. […] All assays were performed in 96-well microtiter plates at room temperature (RT). […] Inhibitor IC50 values were determined by adding test compound as ten point, three-fold serial dilutions in buffer solution, as known in the art. The plate was read at 10 minutes after substrate addition. The IC50 was calculated by plotting the percent (%) inhibition against compound concentration and fitting the data to a constrained four parameter sigmoidal curve, as known in the art.

[2] = molecular target: Human thrombin (Homo sapiens (Human), UniProt P00734); assay: Thrombin protease activity inhibition assay (chromogenic substrate S-2238); assay type: biochemical; conditions: 3 nM thrombin, 125 μM S-2238, 10 min pre-incubation, RT
How it was run: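 Thrombin at 3 nM final in 0.05 M Tris pH 7.4, 0.015 M NaCl, 0.01% PEG-8000, at room temperature; compounds as ten-point three-fold dilutions.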

Human KLKB1, sequence (P03952 391-638 limits assumed): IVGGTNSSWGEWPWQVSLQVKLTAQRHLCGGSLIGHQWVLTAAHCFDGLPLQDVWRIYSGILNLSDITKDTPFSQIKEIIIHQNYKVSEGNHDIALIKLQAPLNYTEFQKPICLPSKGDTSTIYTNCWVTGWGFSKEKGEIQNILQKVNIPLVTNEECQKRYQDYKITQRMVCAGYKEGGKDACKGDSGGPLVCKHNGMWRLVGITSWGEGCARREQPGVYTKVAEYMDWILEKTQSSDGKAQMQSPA
Human KLKB1, sequence (P03952 20-390 partner limits assumed): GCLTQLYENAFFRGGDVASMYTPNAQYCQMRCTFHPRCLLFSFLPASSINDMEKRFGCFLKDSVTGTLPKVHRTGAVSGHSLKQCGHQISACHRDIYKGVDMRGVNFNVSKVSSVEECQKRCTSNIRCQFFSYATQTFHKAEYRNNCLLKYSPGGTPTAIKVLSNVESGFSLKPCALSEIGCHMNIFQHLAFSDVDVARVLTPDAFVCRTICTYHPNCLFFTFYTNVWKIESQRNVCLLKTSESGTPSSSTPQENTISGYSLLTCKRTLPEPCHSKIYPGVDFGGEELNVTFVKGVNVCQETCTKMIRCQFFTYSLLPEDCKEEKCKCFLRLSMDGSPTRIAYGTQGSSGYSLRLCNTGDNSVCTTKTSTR

Compound | IC50 [2] | further results
O=C(c1ccoc1)n1nc(-c2ncccc2F)cc1NCc1ccc(Cl)s1 [Cmpd 291] | – | IC50 ([1]; Table B): > 100000 nM
CCCC(=O)n1nc(-c2ccncc2)nc1NCc1ccccc1 [Cmpd 355] | – | IC50 ([1]; Table C): > 100000 nM
O=C(NCc1ccc2[nH]cc(Cl)c2c1)[C@H]1CC(=O)N(Cc2ccccc2)C1 [Cmpd 415, (3S)-1-benzyl-N-[(3-chloro-1H-indol-5-yl)methyl]-5-oxopyrrolidine-3-carboxamide] | – | IC50 ([1]; 3 nM KLKB1, 250 μM S-2302, 10 min pre-incubation, RT): > 100000 nM
CCCC(=O)n1nc(-c2ccncc2)nc1NCc1ccc(F)cc1 [Cmpd 317] | – | IC50 ([1]; Table C): > 100000 nM
CC(C)(C)C(=O)n1nc(-c2ccco2)nc1NCc1ccc(F)cc1 [Cmpd 300] | – | IC50 ([1]; Table C): 10000 to 100000 nM
COc1ccc(CNc2nc(-c3ccccn3)nn2C(=O)c2ccoc2)cc1 [Cmpd 338] | – | IC50 ([1]; Table C): 10000 to 100000 nM
COc1ccc(CNc2nc(-c3ccccn3)nn2C(=O)Cc2ccccc2)cc1 [Cmpd 321] | – | IC50 ([1]; Table C): 10000 to 100000 nM
O=C(c1ccccc1Cl)n1nc(-c2cccs2)nc1NCc1ccccc1 [Cmpd 396] | – | IC50 ([1]; Table C): 100 to 1000 nM
CC(C)(C)C(=O)n1nc(-c2ccco2)nc1NCc1ccccc1 [Cmpd 342] | – | IC50 ([1]; Table C): > 100000 nM
CC(C)(C)C(=O)n1nc(-c2cccs2)nc1NCc1ccccc1 [Cmpd 357] | – | IC50 ([1]; Table C): > 100000 nM
CN(C)c1cc(-c2cccn(Cc3ccccn3)c2=O)nn1C(=O)c1ccco1 [Cmpd 240, 3-[5-(dimethylamino)-1-[(furan-2-yl)carbonyl]-1H-pyrazol-3-yl]-1-(pyridin-2-ylmethyl)-1,2-dihydropyridin-2-one] | > 100000 nM | –
Cn1cccc(-c2cc(NCc3ccc(Cl)s3)n(C(=O)C(C)(C)C)n2)c1=O [Cmpd 90, 3-(5-[(5-chlorothiophen-2-yl)methyl]amino-1-(2,2-dimethylpropanoyl)-1H-pyrazol-3-yl)-1-methyl-1,2-dihydropyridin-2-one] | < 100 nM | –
O=c1c(-c2cc(NCc3ccc(Cl)s3)[nH]n2)cccn1CCN1CCOCC1 [Cmpd 234, 3-(5-[(5-chlorothiophen-2-yl)methyl]amino-1H-pyrazol-3-yl)-1-[2-(morpholin-4-yl)ethyl]-1,2-dihydropyridin-2-one] | 10000 to 100000 nM | –
Nc1cc(-c2cccn(Cc3ccccn3)c2=O)nn1C(=O)c1ccco1 [Cmpd 256, 3-5-amino-1-[(furan-2-yl)carbonyl]-1H-pyrazol-3-yl-1-(pyridin-2-ylmethyl)-1,2-dihydropyridin-2-one] | 1000 to 10000 nM | –

Second part, led by results:

IC50 [2] | Compound | further results
< 100 nM | O=C(c1cccc2c1OCCO2)n1nc(-c2cccn(Cc3ccccc3)c2=O)cc1NCc1ccc(Cl)s1 [Cmpd 45, 1-benzyl-3-(5-[(5-chlorothiophen-2-yl)methyl]amino-1-[(2,3-dihydro-1,4-benzodioxin-5-yl)carbonyl]-1H-pyrazol-3-yl)-1,2-dihydropyridin-2-one] | –
< 100 nM | CC(C)(C)OC(=O)Cn1cccc(-c2cc(NCc3ccc(Cl)s3)n(C(=O)c3ccoc3)n2)c1=O [Cmpd 263, tert-butyl 2-[3-(5-[(5-chlorothiophen-2-yl)methyl]amino-1-[(furan-3-yl)carbonyl]-1H-pyrazol-3-yl)-2-oxo-1,2-dihydropyridin-1-yl]acetate] | –
< 100 nM | O=C(c1ccsc1)n1nc(-c2cccn(Cc3cccs3)c2=O)cc1NCc1ccc(Cl)s1 [Cmpd 202, 3-(5-[(5-chlorothiophen-2-yl)methyl]amino-1-[(thiophen-3-yl)carbonyl]-1H-pyrazol-3-yl)-1-(thiophen-2-ylmethyl)-1,2-dihydropyridin-2-one] | –
< 100 nM | O=C(c1ccccc1Cl)n1nc(-c2cccn(Cc3cccnn3)c2=O)cc1NCc1ccc(Cl)s1 [Cmpd 245, 3-1-[(2-chlorophenyl)carbonyl]-5-[(5-chlorothiophen-2-yl)methyl]amino-1H-pyrazol-3-yl-1-(pyridazin-3-ylmethyl)-1,2-dihydropyridin-2-one] | –
< 100 nM | CC(C)(C)C(=O)n1nc(-c2cccn(Cc3cccc(Cl)c3)c2=O)cc1NCc1ccc(Cl)s1 [Cmpd 31, 1-[(3-chlorophenyl)methyl]-3-(5-[(5-chlorothiophen-2-yl)methyl]amino-1-(2,2-dimethylpropanoyl)-1H-pyrazol-3-yl)-1,2-dihydropyridin-2-one] | –
> 100000 nM | O=c1c(-c2cc(NCc3ccc(Cl)s3)[nH]n2)cccn1Cc1ccc(Cl)cc1 [Cmpd 38, 1-[(4-chlorophenyl)methyl]-3-(5-[(5-chlorothiophen-2-yl)methyl]amino-1H-pyrazol-3-yl)-1,2-dihydropyridin-2-one] | –
< 100 nM | O=C(c1ccoc1)n1nc(-c2cccn(Cc3cccnn3)c2=O)cc1NCc1ccc(Cl)s1 [Cmpd 176, 3-(5-[(5-chlorothiophen-2-yl)methyl]amino-1-[(furan-3-yl)carbonyl]-1H-pyrazol-3-yl)-1-(pyridazin-3-ylmethyl)-1,2-dihydropyridin-2-one] | –
< 100 nM | O=C(c1ccc(N2CCOCC2)cc1)n1nc(-c2cccn(Cc3ncccn3)c2=O)cc1NCc1ccc(Cl)s1 [Cmpd 215, 3-(5-[(5-chlorothiophen-2-yl)methyl]amino-1-[4-(morpholin-4-yl)phenyl]carbonyl-1H-pyrazol-3-yl)-1-(pyrimidin-2-ylmethyl)-1,2-dihydropyridin-2-one] | –
< 100 nM | O=C(c1ccco1)n1nc(-c2cccn(Cc3ccsc3)c2=O)cc1NCc1ccc(Cl)s1 [Cmpd 169, 3-(5-[(5-chlorothiophen-2-yl)methyl]amino-1-[(furan-2-yl)carbonyl]-1H-pyrazol-3-yl)-1-(thiophen-3-ylmethyl)-1,2-dihydropyridin-2-one] | –
< 100 nM | CCOC(=O)Cn1cccc(-c2cc(NCc3ccc(Cl)s3)n(C(=O)c3ccoc3)n2)c1=O [Cmpd 259, ethyl 2-[3-(5-[(5-chlorothiophen-2-yl)methyl]amino-1-[(furan-3-yl)carbonyl]-1H-pyrazol-3-yl)-2-oxo-1,2-dihydropyridin-1-yl]acetate] | –
< 100 nM | CC(C)(C)C(=O)n1nc(-c2cccn(Cc3ccsc3)c2=O)cc1NCc1ccc(Cl)s1 [Cmpd 87, 3-(5-[(5-chlorothiophen-2-yl)methyl]amino-1-(2,2-dimethylpropanoyl)-1H-pyrazol-3-yl)-1-(thiophen-3-ylmethyl)-1,2-dihydropyridin-2-one] | –
< 100 nM | COCC(C)(C)C(=O)n1nc(-c2cccn(Cc3ccoc3)c2=O)cc1NCc1ccc(Cl)s1 [Cmpd 99, 3-(5-[(5-chlorothiophen-2-yl)methyl]amino-1-(3-methoxy-2,2-dimethylpropanoyl)-1H-pyrazol-3-yl)-1-(furan-3-ylmethyl)-1,2-dihydropyridin-2-one] | –
< 100 nM | Cn1cccc(-c2cc(NCc3ccc(Cl)s3)n(C(=O)c3ccc(C(C)(C)C)cc3)n2)c1=O [Cmpd 254, 3-1-[(4-tert-butylphenyl)carbonyl]-5-[(5-chlorothiophen-2-yl)methyl]amino-1H-pyrazol-3-yl-1-methyl-1,2-dihydropyridin-2-one] | –
< 100 nM | O=C(c1ccoc1)n1nc(-c2cccn(Cc3ccc(Cl)s3)c2=O)cc1NCc1ccc(Cl)s1 [Cmpd 41, 1-[(5-chlorothiophen-2-yl)methyl]-3-(5-[(5-chlorothiophen-2-yl)methyl]amino-1-[(furan-3-yl)carbonyl]-1H-pyrazol-3-yl)-1,2-dihydropyridin-2-one] | –
< 100 nM | O=C(c1cccc2c1OCCO2)n1nc(-c2cccn(Cc3ccoc3)c2=O)cc1NCc1ccc(Cl)s1 [Cmpd 111, 3-(5-[(5-chlorothiophen-2-yl)methyl]amino-1-[(2,3-dihydro-1,4-benzodioxin-5-yl)carbonyl]-1H-pyrazol-3-yl)-1-(furan-3-ylmethyl)-1,2-dihydropyridin-2-one] | –
< 100 nM | O=C(c1cccs1)n1nc(-c2cccn(Cc3cccnc3)c2=O)cc1NCc1ccc(Cl)s1 [Cmpd 187, 3-(5-[(5-chlorothiophen-2-yl)methyl]amino-1-[(thiophen-2-yl)carbonyl]-1H-pyrazol-3-yl)-1-(pyridin-3-ylmethyl)-1,2-dihydropyridin-2-one] | –
< 100 nM | O=C(c1ccccc1Cl)n1nc(-c2cccn(Cc3ccsc3)c2=O)cc1NCc1ccc(Cl)s1 [Cmpd 251, 3-1-[(2-chlorophenyl)carbonyl]-5-[(5-chlorothiophen-2-yl)methyl]amino-1H-pyrazol-3-yl-1-(thiophen-3-ylmethyl)-1,2-dihydropyridin-2-one] | –
< 100 nM | COCCn1cccc(-c2cc(NCc3ccc(Cl)s3)n(C(=O)c3ccccc3OC)n2)c1=O [Cmpd 133, 3-(5-[(5-chlorothiophen-2-yl)methyl]amino-1-[(2-methoxyphenyl)carbonyl]-1H-pyrazol-3-yl)-1-(2-methoxyethyl)-1,2-dihydropyridin-2-one] | –
> 100000 nM | O=C(c1ccco1)n1nc(-c2cccn(CCN3CCOCC3)c2=O)cc1NCc1ccc(Cl)s1 [Cmpd 170, 3-(5-[(5-chlorothiophen-2-yl)methyl]amino-1-[(furan-2-yl)carbonyl]-1H-pyrazol-3-yl)-1-[2-(morpholin-4-yl)ethyl]-1,2-dihydropyridin-2-one] | –
< 100 nM | O=C(c1cccc2c1OCCO2)n1nc(-c2cccn(Cc3cccnn3)c2=O)cc1NCc1ccc(Cl)s1 [Cmpd 112, 3-(5-[(5-chlorothiophen-2-yl)methyl]amino-1-[(2,3-dihydro-1,4-benzodioxin-5-yl)carbonyl]-1H-pyrazol-3-yl)-1-(pyridazin-3-ylmethyl)-1,2-dihydropyridin-2-one] | –
< 100 nM | O=C(c1ccoc1)n1nc(-c2cccn(Cc3cccc(Cl)c3)c2=O)cc1NCc1ccc(Cl)s1 [Cmpd 33, 1-[(3-chlorophenyl)methyl]-3-(5-[(5-chlorothiophen-2-yl)methyl]amino-1-[(furan-3-yl)carbonyl]-1H-pyrazol-3-yl)-1,2-dihydropyridin-2-one] | –
